Assay results: patent US20190127354A1, “2,4,6,7-TETRASUBSTITUTED QUINOLINE COMPOUNDS AS INHIBITORS OF DNA […]” (FUNDACIÓN PARA LA INVESTIGACIÓN MÉDICA APLICADA, priority 2015, published 2019)

Key:
Hep3B = test: Cell proliferation assay (CellTiter 96 Aqueous One Solution); format: cell-based; conditions: Homo sapiens, hepatocellular carcinoma cells, 48 hours of treatment
Protocol: (§1) Cell proliferation was analyzed after 48 hours of in vitro treatment using the CellTiter 96 Aqueous One Solution Cell Proliferation Assay (Promega, Madison, W). This is a colorimetric method for determining the number of viable cells in proliferation.
(§2) For the assay, suspension cells were cultured by triplicate at a density of 1×10^6 cells/ml in 96-well plates (100.000 cells/well, 100 μl/well), except for HepG2, Hep3B and PLC/PRF/5 cell lines which were cultured at a density of 3000 cells/well, 100 μl/well).
(§3) Adherent cells were obtained from 80-90% confluent flasks and 100 μl of cells were seeded at a density of 5000 cells/well in 96-well plates by triplicate. Before addition of the compounds, adherent cells were allowed to attach to the bottom of the wells for 12 hours. In all cases, only the 60 inner wells were used to avoid any border effects.
(§4) After 48 hours of treatment, plates with suspension cells were centrifuged at 800g for 10 minutes and medium was removed. The plates with adherent cells were flicked to remove medium. Then, cells were incubated with 100 μl/well of medium and 20 μl/well of CellTiter 96 Aqueous One Solution reagent. After 1-3 hours of incubation at 37° C., absorbance was measured at 490 nm in a 96-well plate reader. The background absorbance was measured in wells with only cell line medium and solution reagent. Data was calculated as a percentage of total absorbance of treated cell/absorbance of non treated cells.

HepG2 = test: as above; format: cell-based; conditions: Homo sapiens, hepatocellular carcinoma cells, 48 hours of treatment
Protocol: as §1, §2, §3, §4

CEMO-1 = test: as above; format: cell-based; conditions: acute lymphocytic leukemia (ALL) cells, 48 hours of treatment
Protocol: as §1, §2, §3, §4

human G9a enzyme = molecular target: T1, human G9a enzyme (Homo sapiens, UniProt Q96KQ7); test: G9a enzyme activity assay (TR-FRET); format: biochemical; conditions: 1 hour at room temperature
T1 construct: purchased BPS Biosciences 51001; host or cells: baculovirus infected Sf9 cells
T1 sequence (Q96KQ7 1-1210): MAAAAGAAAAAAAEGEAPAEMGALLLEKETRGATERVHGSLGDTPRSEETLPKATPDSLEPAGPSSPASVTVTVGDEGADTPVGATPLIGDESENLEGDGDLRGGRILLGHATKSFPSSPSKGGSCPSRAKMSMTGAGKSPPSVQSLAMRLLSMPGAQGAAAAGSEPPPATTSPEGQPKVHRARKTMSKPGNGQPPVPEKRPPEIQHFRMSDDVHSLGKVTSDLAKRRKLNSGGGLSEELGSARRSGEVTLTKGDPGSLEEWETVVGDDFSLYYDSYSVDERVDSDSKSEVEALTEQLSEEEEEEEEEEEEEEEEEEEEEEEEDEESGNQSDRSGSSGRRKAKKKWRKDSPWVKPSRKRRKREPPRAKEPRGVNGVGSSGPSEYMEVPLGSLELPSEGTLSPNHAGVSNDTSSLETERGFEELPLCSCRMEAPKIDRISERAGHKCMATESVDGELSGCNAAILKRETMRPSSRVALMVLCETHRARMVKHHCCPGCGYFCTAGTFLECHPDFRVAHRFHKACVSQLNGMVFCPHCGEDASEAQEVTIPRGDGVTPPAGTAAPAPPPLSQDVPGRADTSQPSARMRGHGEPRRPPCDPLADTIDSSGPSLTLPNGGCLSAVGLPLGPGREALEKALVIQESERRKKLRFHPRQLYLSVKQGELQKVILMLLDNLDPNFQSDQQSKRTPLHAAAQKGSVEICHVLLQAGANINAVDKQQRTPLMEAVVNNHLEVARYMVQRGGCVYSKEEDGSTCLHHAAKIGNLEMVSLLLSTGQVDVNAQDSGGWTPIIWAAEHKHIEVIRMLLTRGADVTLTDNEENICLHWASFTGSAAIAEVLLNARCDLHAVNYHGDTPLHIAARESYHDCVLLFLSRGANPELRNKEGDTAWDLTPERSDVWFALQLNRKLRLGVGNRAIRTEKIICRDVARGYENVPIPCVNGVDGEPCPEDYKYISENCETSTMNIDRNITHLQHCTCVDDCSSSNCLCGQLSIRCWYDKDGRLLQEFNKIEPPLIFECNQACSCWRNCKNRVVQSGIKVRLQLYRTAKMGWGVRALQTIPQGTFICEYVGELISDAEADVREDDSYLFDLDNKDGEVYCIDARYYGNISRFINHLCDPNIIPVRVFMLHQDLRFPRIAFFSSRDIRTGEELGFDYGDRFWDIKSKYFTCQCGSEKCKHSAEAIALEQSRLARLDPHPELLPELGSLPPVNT
Protocol: G9a Enzyme Activity Assay
The biochemical assay to measure G9a enzyme activity relies on time-resolved fluorescence energy transfer (TR-FRET) between europium cryptate (donor) and XL665 (acceptor). […] The human G9a enzyme expressed in a baculovirus infected Sf9 cell expression system was obtained from BPS Biosciences (Cat. #51001). Enzyme activity assay was carried out in a white 384-well plate in a final volume of 20 μl, as follow: • 4 μl of vehicle or studied compound 2.5× concentrated prepared in assay buffer (50 mM Tris-HCl, 10 mM NaCl, 4 mM DTT, 0.01% Tween-20 pH9). Final percentage of DMSO was 0.5%. • 2 μl of 1 nM G9a enzyme diluted in assay buffer. […] Final concentration 150 nM. • Then, add 5 μl of streptavidin XL665 beads. Final concentration of 16 μM. • Read the plate after 1 hour of incubation at room temperature.
(§5) For each well, fluorescence was measured at 620 nm and 665 nm. A ratio (665 nm/620 nm) was then calculated in order to minimize medium interferences. Positive control was obtained in the presence of the vehicle of the compounds. Negative control was obtained in the absence of G9a enzyme activity. Calculated IC50 values were determined using GraphPrism using 4-parameters inhibition curve.

human DNMT1 = molecular target: T2, human DNMT1 (Homo sapiens, UniProt P26358); test: DNMT1 enzyme activity assay (TR-FRET, EPIgeneous methyltransferase assay); format: biochemical; conditions: human DNMT1, 15 minutes at 37° C.
T2 construct: purchased Reaction Biology Corp. DMT-21-124
T2 sequence (P26358 whole entry): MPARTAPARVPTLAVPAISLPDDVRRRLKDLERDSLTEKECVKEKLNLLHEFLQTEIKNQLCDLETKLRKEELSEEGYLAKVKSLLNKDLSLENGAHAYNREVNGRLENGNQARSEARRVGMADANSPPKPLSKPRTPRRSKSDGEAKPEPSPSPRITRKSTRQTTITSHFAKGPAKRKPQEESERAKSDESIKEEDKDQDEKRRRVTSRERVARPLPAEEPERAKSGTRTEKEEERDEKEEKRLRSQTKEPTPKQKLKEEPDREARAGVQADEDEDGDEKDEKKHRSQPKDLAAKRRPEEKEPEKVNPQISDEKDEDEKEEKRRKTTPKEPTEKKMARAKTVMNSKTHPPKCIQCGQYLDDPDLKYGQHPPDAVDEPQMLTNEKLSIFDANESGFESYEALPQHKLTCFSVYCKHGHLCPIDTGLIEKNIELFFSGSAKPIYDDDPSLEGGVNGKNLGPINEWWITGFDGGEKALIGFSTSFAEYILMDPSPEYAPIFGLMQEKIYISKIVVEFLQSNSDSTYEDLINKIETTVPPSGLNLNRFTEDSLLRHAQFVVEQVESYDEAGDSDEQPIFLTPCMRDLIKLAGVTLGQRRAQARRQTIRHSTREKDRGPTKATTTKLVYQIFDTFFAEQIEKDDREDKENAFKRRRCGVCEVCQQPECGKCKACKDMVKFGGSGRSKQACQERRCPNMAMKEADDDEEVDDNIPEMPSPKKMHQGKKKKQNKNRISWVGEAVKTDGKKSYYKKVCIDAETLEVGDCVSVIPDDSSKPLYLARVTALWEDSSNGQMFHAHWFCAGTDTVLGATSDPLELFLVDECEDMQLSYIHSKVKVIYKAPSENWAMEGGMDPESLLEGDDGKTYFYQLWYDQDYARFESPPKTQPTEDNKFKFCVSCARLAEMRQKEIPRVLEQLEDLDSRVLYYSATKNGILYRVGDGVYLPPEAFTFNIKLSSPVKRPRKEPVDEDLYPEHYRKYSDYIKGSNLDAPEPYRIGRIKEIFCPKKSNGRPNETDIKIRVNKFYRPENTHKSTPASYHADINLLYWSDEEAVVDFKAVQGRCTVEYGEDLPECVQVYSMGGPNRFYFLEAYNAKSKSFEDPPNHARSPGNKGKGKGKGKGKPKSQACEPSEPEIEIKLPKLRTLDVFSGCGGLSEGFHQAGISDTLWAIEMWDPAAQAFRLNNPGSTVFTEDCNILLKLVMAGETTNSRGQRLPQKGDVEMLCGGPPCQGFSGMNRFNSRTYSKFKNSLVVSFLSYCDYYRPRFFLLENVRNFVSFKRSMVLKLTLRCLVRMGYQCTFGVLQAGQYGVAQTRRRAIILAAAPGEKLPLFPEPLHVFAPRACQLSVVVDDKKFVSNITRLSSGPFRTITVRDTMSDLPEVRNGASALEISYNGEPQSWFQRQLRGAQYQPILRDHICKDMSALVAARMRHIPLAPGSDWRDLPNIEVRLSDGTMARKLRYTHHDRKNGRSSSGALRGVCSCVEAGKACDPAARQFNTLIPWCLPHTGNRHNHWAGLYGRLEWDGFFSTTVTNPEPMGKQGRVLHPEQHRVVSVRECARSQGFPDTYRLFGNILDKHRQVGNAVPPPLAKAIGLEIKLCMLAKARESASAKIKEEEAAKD
Protocol: DNMT1 Enzyme Activity Assay
The biochemical assay to measure DNMT1 enzyme activity relies on time-resolved fluorescence energy transfer (TR-FRET) between lumi4-Tb (donor) and d2 (acceptor) using the EPIgeneous methyltransferase assay (CisBio Cat#62SAHPEB). […] TR-FRET signal is inversely proportional to the concentration of SAH, product of DNMT1 enzyme activity, in the sample. The human DNMT1 was obtained from Reaction Biology Corp. (Cat# DMT-21-124).
Enzyme activity assay was carried out in a white 384-well plate in a final volume of 20 μl, as follow: • 4 μl of vehicle or studied compound 2.5× concentrated prepared in assay buffer (50 mM Tris-HCl, 1 mM EDTA, 1 mM DTT, 0.1% Triton X-100, 5% glycerol pH 7.5). Final percentage of DMSO was 0.5%. • 2 μl of 1 nM DNMT1 enzyme diluted in assay buffer.
as §5, with “compounds.” for “compounds. Negative control was obtained in the absence of G9a enzyme activity.”

PLC/PRF/5 = test: Cell proliferation assay (CellTiter 96 Aqueous One Solution); format: cell-based; conditions: Homo sapiens, hepatocellular carcinoma cells, 48 hours of treatment
Protocol: as §1, §2, §3, §4

[1] = test system: DNA methyltransferase (DNMT); conditions: selectivity in a methyltransferase enzyme panel including one DNMT, according to the authors; cited from earlier work

Row | SMILES | GI50 (Hep3B) [µM] | GI50 (HepG2) [µM] | GI50 (CEMO-1) [µM] | IC50 (human G9a enzyme) [µM] | IC50 (human DNMT1) [µM] | GI50 (PLC/PRF/5) [µM] | activity against the DNA methyltransferase [1]
1 | COc1cc2c(N(C)CC3CCN(C)CC3)cc(-c3ccc(C)o3)nc2cc1OCCCN1CCCC1 [Compound 1-03] | 0.1 to 1 | 0.1 to 1 | 1 to 10 | 1 to 10 | 0.1 to 0.5 | – | –
2 | CCc1ccc(-c2cc(N(C)CC3CCN(C)CC3)c3cc(OC)c(OCCCN4CCCC4)cc3n2)o1 [Compound 1-04] | 0.1 to 1 | 0.1 to 1 | 0.1 to 1 | 0.5 to 1 | 0.1 to 0.5 | – | –
3 | COc1cc2c(OC3CCN(C)CC3)cc(-c3ccc(C)o3)nc2cc1OCCCN1CCCC1 [Compound 3-01, 6-methoxy-2-(5-methyl-2-furyl)-4-[(1-methyl-4-piperidyl)oxy]-7-(3-pyrrolidin-1-ylpropoxy)quinoline] | 1 to 10 | 1 to 10 | 1 to 10 | – | – | 1 to 10 | –
4 | COc1cc2nc(N3CCCN(C)CC3)cc(NC3CCN(Cc4ccccc4)CC3)c2cc1OC [Compound 41] | – | – | – | – | – | – | inactive
5 | COc1cc2nc(N3CCN(C)CC3)cc(NC3CCN(Cc4ccccc4)CC3)c2cc1OC [Compound 42] | – | – | – | – | – | – | inactive
